Source: patent publication EP0461869A2, “Chemotherapeutic agents” (MERCK & CO. INC., priority 1990, dated 1991)

Legend:
[1] = molecular target: T1, Farnesyl-protein transferase from bovine brain (partially purified enzyme preparation) (Bos taurus, UniProt P29702+P49355); test: Competition of Ras farnesylation by polyisoprenoids and peptides (Hepes-buffered assay, immunoprecipitation and nitrocellulose filtration); format: biochemical; details: for IC50: [Leu68]RAS1(term.)CVLS at 1 µM, 0.5 µM [3H]FPP, 10 min at 24° C, average of 2-5 determinations, >> = no competition at the highest concentration tested; for competition of the farnesylation reaction (in words): 0.5 µM [3H]FPP and 1 µM Ras
T1 construct: the indicated compounds were incubated with this partially purified enzyme preparation; from tissue; host or cells: bovine brain; chromatographed on DEAE-Sephacel and N-octyl agarose
Experimental: Enzyme reactions were analyzed by SDS-PAGE (sodium dodecyl sulfate/polyacrylamide gel electrophoresis) or immunoprecipitation. For gel analysis, each labeling reaction was boiled for 3 min in buffer containing 1% SDS/100 mM Tris-Cl, pH 6.8/10% glycerol/1% 2-mercaptoethanol, and loaded directly on 13.7% polyacrylamide gels. Radiolabeled Ras was visualized by autoradiography after fluorographic enhancement with Enlightning (New England Nuclear). For immunoprecipitation of radiolabelled Ras, reactions were first extracted with Triton X-114 using a modification of the procedure of Bordier (J. Biol. Chem. 256:1604-1607(1981). An aliquot (150 µl) of 1% Triton X-114 (Pierce) was added to the 50 µl reaction mix to achieve a final Triton X-114 concentration of 0.75%. Following 10 min. on ice, the tubes were transfered to a 37°C bath for 3 min. The cloudy solution was then centrifuged at 10,000 x g for 5 min. at room temperature. The upper aqueous phase was removed, and the detergent phase was diluted by the addition of 150 µl cold phosphate-buffed saline plus 150 µl of Ras monoclonal antibody Y13-259 coupled to Sepharose-protein A beads (Gutierrez et al. EMBO J. 8:1093-1098(1989) and Hancock et al. Cell 57:1167-1177(1989).
Farnesyl-protein transferase from bovine brain was chromatographed on DEAE-Sephacel (Pharmacia, 0-0.8 M NaCl gradient elution) and N-octyl agarose (Sigma, 0-0.6 M NaCl gradient elution). […] Reactions were analyzed by immunoprecipitation without the Triton X-114 extraction step followed by Nitrocellulose filtration.

[2] = molecular target: bovine brain farnesylprotein transferase activity (Bos taurus, UniProt P29702+P49355); test: Apparent Km estimation for farnesylation of Ras, varying [14C]FPP and [Leu61]Ha Ras concentration; format: biochemical; details: [14C]FPP varied 0.03-30 µM, [Leu61]Ha Ras varied 0.03-250 µM; estimated
Experimental: Polyisoprenylation of Ras⁻ [³H]mevalonic acid (35 Ci/mmol) and [³H]farnesyl-PPi(FPP) FPP (20 Ci/mmol) were purchased from New England Nuclear. [¹⁴C]FPP (49.7 mCi/mmol) was prepared enzymatically from partially purified prenyl transferase, [4-¹⁴C]isopentyl-PPi (47.9 mCi/mmol, Amersham), and geranyl-PPi. Reactions contained 280 pmol (10 µCi) of [³H]mevalonic acid, 500 pmol (0.025 µCi) of [¹⁴C]FPP or 25 pmol (0.5 µci) of [³H]FPP. In a standard 50 µl reaction, 250 pmol of Ras purified from E. coli (Gibbs et al. Proc. Natl. Acad. Sci. USA 86:6630-6634(1989)) was added to 35 µl of rabbit reticulocyte lysate (Promega, L4210) or a tissue extract (100,00 x g supernatant, 10 mg/ml). Buffer conditions were adjusted by the addition of one-tenth volume of 500 mM Tris-Cl, pH 8.0/50 mM MgCl₂ or one-tenth volume of 500 mM NaHepes, pH 7.5/50 mM MgCl₂/50mM dithiothreitol. In the Tris-buffered assay, the reactions were incubated for 1 hour at 24°C. Reaction velocities in the Hepes buffered assays were at least four times greater, and incubations were for 10 minutes at 24°C. Tissue extracts were prepared as described previously [(ethylenebis(oxyethylenenitrilo)]tetra-acetic acid in buffer containing 50 mM Tris-Cl, pH 8.0/1 mM EGTA/1 mM MgCl₂/1 mM dithiothreitol/10 µl/ml aprotinin/0.5 mM phenylmethlysulfonyl fluoride. […]

| Molecule | IC50 [1] | competition of the farnesylation reaction (in words) [1] | Km [2] |
| --- | --- | --- | --- |
| CC(C)=CCOP(=O)(O)OP(=O)(O)O [Dimethylallyl-PPi] | 325 µM | – | – |
| CC(C)=CCCC(C)=CCCC(C)=CCO [Farnesol] | > 100 µM | inactive | – |
| CC(C)=CCC/C(C)=C/CC/C(C)=C/COP(=O)(O)OP(=O)(O)O [Farnesyl-PPi] | 0.7 µM | potently inhibited | 0.3 µM |
| CC(C)=CCC/C(C)=C/COP(=O)(O)OP(=O)(O)O [Geranyl-PPi] | 67 µM | – | – |
| CC(C)=CCC/C(C)=C/CC/C(C)=C/CC/C(C)=C/CO [Geranylgeraniol] | > 100 µM | inactive | – |
| CC(C)=CCC/C(C)=C/CC/C(C)=C/CC/C(C)=C/COP(=O)(O)OP(=O)(O)O [Geranylgeranyl-PPi] | 1.4 µM | potently inhibited | – |
| Cys-Val-Leu-Ser (CVLS; printed: Cys-Val-Leu-Ser) | 2.2 µM | – | – |
| S-(trans, trans) farnesyl-CVIM | 1.4 µM | – | – |
| S-(trans, trans) farnesyl-CVLS | 28 µM | – | – |
